Reference: paper PMC11479992, “Branched oncolytic peptides target HSPGs, inhibit metastasis, and trigger the release of molecular determinants of immunogenic cell death in pancreatic cancer” (Frontiers in Molecular Biosciences, 2024)
Counter-ions that a name gives are not always drawn. Bridges are numbered along the chain shown (N, C = ends). Roman numbers before positions name the chains, in order. Where no end group is shown, it is not given here.

Key:
[1] = tested on: IFN-β secretion by PANC-1 cells; test: IFN-β release ELISA; assay type: cell-based, human; details: 300 to 2 μM, 24 h, n = 3
Method: PANC-1 cells were seeded 5 × 10^4 cells/well in a 96-well plate and incubated overnight at 37°C in a 5% CO2 atmosphere. Cells were then treated with BOP7, BOP9, daunorubicin hydrochloride (Sigma Aldrich) and irinotecan hydrochloride (Sigma Aldrich) at different concentrations (from 300 to 2 μM) and left for 24 h at 37°C. At the same time, a DuoSet ELISA plate (R&D Systems Inc., Minneapolis, MN, United States) for the detection of IFN-β was prepared following the manufacturer’s instructions. The plate was sensitized with 100 μL/well of capture antibody for 24 h. PANC-1 supernatants were collected and centrifuged for 5 min at 1,200 rpm, added to the DuoSet plate at 100 μL/well and incubated for 2 h at room temperature. The detection antibody conjugated with streptavidin-peroxidase was then added. After adding the substrate solution, the plate was read at 450 nm using a microplate spectrophotometer (Multiskan, Thermo Scientific). Data was analysed using GraphPad Prism version 9.5.0 software.

[2] = tested on: HMGB1 release by PANC-1 cells; test: HMGB1 release ELISA; assay type: cell-based, human; details: 300 to 2 μM, 24 h, ELISA of supernatants, n = 3
Method: PANC-1 cells were seeded 5 × 10^4 cells/well in a standard 96-well plate and incubated overnight at 37°C in a 5% CO2 atmosphere. Then they were treated with BOP7, BOP9, daunorubicin hydrochloride (Sigma Aldrich) and irinotecan hydrochloride (Sigma Aldrich) at different concentrations (from 300 to 2 μM in 200 μL) and left for 24 h at 37°C. The following day, release of HMGB1 in the culture medium was assessed with an HMGB1 ELISA kit (IBL International, Hamburg, Germany) in the PANC-1 supernatants, according to the manufacturer’s instructions. Optical density was measured at 450 nm with a microplate spectrophotometer (Multiskan, Thermo Scientific). Data was analysed using GraphPad Prism version 9.5.0 software.

[3] = tested on: ATP release by PANC-1 cells; test: Extracellular ATP bioluminescence assay; assay type: cell-based, human; details: 50 μM
Method: PANC-1 cells were seeded (10 × 10^3 cells/well) in an opaque-walled 96-well plate and incubated overnight at 37°C in a 5% CO2 atmosphere. The following day, each well was treated with 150 μL BOP7, BOP9, daunorubicin hydrochloride (Sigma Aldrich) or irinotecan hydrochloride (cod. PHR2717, Sigma Aldrich) at different concentrations (from 50 to 2 μM). At the same time, each well was incubated with 50 μL RealTime-Glo Extracellular ATP Reagent Substrate (Promega). The plate was incubated at 37° and bioluminescence was measured at 560 nm at different time intervals with a VICTOR NIVO 5S luminometer (Perkin Elmer, Waltham, MA, United States). Data was analysed using GraphPad Prism version 9.5.0 software.

Mia PaCa-2 cells = assay type: cell-based, human; details: 24 h
Method: (§1) PANC-1, PANC-1-luc2, Mia PaCa-2 or CHO-K1 cells were seeded 5 × 10^4 cells/well in a standard 96-well plate and incubated overnight at 37°C, 5% CO2 atmosphere. Each well was treated with 200 μL BOP7 or BOP9 at different concentrations (from 100 to 0.08 μM) and incubated for 24 h. PANC-1 and Mia PacCa-2 were also tested with linear peptides L7 and L9 at concentrations ranging from 781 to 0.5 μM under the same conditions. Growth inhibition was assessed with a MMT assay (3-(4,5-dimethylthiazol-2-yl)-2,5-diphenyltetrazolium bromide) (Sigma Aldrich). Optical density was measured at 595 and 650 nm with a microplate spectrophotometer (Multiskan, Thermo Scientific). Experiments were repeated twice in quintuplicate. Cell viability was measured by comparing values of treated and untreated cells. IC50 values were calculated by non-linear regression analysis using GraphPad Prism version 9.5.0 software.

PANC-1 cells = assay type: cell-based, human; details: 24 h
Method: as §1

CHO-K1 cells = assay type: cell-based, chinese hamster; details: 24 h
Method: as §1, with “Each well was treated with 200 μL BOP7 or BOP9 at different concentrations (from 100 to 0.08 μM) and incubated for 24 h.” left out

Row | Compound | IFN-β release [1] | HMGB1 release [2] | time after which ATP release returned to baseline [3] [h] | time of peak of ATP release [3] [h] | ATP release ([3]; bioluminescence over time) | IC50 (Mia PaCa-2 cells) [µM] | IC50 (PANC-1 cells) [µM] | IC50 (CHO-K1 cells) [µM]
1 | CCc1c2c(nc3ccc(OC(=O)N4CCC(N5CCCCC5)CC4)cc13)-c1cc3c(c(=O)n1C2)COC(=O)[C@]3(O)CC [irinotecan, irinotecan hydrochloride] | did not result in a statistically significant release |  |  |  |  |  |  | 
2 | COc1cccc2c1C(=O)c1c(O)c3c(c(O)c1C2=O)C[C@@](O)(C(C)=O)C[C@@H]3O[C@H]1C[C@H](N)[C@H](O)[C@H](C)O1 [daunorubicin, daunorubicin hydrochloride] | did not result in a statistically significant release | most effective inducer even at the lowest concentrations | 6 | 3 | most effective agent |  |  | 
3 | I: KKKLKFKKLQKK-NH2 / II: KKKLKFKKLQK / III: KKKLKFKKLQ / IV: KKKLKFKKLQ (amide I:11-IV:C, I:12-II:C, II:11-III:C) [BOP9] |  |  |  |  |  | 17.8 | 8.3 | 16000
4 | I: LLKKKFKKLQKK-NH2 / II: LLKKKFKKLQK / III: LLKKKFKKLQ / IV: LLKKKFKKLQ (amide I:11-IV:C, I:12-II:C, II:11-III:C) [BOP7] |  |  |  |  |  | 27.3 | 1.67 | 5000
